The first series deals with Mu-type opioid receptor (Rattus norvegicus, UniProt P33535). The series can be described thus: Displacement of [3H]DAMGO from rat brain mu opioid receptor.
Mu-type opioid receptor (Cavia porcellus, UniProt P97266), sequence (P97266 whole entry): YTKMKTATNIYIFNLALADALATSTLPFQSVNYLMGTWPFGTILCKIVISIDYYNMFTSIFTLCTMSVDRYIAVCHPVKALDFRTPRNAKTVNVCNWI
Delta-type opioid receptor (Mus musculus, UniProt P32300), sequence (P32300 whole entry): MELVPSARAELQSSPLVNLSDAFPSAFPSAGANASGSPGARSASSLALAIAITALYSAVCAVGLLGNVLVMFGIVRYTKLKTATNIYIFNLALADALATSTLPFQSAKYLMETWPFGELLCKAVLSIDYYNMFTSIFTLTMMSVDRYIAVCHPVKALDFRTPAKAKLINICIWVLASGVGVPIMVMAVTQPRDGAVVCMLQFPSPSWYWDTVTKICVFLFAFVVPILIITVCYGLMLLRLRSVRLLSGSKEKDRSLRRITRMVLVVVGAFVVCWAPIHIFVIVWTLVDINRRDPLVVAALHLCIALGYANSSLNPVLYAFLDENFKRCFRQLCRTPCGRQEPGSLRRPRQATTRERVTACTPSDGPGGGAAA
Mu-type opioid receptor (Rattus norvegicus, UniProt P33535), sequence (P33535 whole entry): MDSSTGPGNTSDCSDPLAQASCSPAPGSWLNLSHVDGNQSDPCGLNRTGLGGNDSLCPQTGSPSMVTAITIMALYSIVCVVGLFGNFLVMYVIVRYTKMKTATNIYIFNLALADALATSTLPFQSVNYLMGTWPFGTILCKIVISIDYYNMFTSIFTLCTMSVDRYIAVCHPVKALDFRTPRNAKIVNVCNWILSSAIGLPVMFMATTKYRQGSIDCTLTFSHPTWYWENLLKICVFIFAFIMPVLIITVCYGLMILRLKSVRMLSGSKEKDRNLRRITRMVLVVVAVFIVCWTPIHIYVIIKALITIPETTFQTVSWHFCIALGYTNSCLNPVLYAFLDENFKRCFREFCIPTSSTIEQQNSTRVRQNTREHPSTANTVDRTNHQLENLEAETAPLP
The term Ki denotes the equilibrium dissociation constant of an inhibitor or competing ligand from its target. A lower Ki goes with higher affinity. With `NC(=O)[C@@H]1CCCC[C@@H](NC(=O)[C@@H](N)Cc2ccc(O)cc2)C(=O)NCC(=O)N[C@@H](Cc2ccccc2)C(=O)N1`, the Ki was 2.34 nM.

With `NC(=O)[C@H]1CCCC[C@@H](NC(=O)[C@@H](N)Cc2ccc(O)cc2)C(=O)NCC(=O)N[C@@H](Cc2ccccc2)C(=O)N1`, the Ki worked out at 1.17 nM.

`NC(=O)[C@@H]1C/C=C/C[C@@H](NC(=O)[C@@H](N)Cc2ccc(O)cc2)C(=O)NCC(=O)N[C@@H](Cc2ccccc2)C(=O)N1` returned a Ki of 0.616 nM.

In turn, `NC(=O)[C@@H]1C/C=C\C[C@@H](NC(=O)[C@@H](N)Cc2ccc(O)cc2)C(=O)NCC(=O)N[C@@H](Cc2ccccc2)C(=O)N1` returned a Ki of 2.4 nM.

`NC(=O)[C@H]1C/C=C/C[C@@H](NC(=O)[C@@H](N)Cc2ccc(O)cc2)C(=O)NCC(=O)N[C@@H](Cc2ccccc2)C(=O)N1` showed a Ki of 1.05 nM.

With `NC(=O)[C@H]1C/C=C\C[C@@H](NC(=O)[C@@H](N)Cc2ccc(O)cc2)C(=O)NCC(=O)N[C@@H](Cc2ccccc2)C(=O)N1`, the affinity, expressed as Ki, was 2.27 nM.

For another series, the target named is Delta-type opioid receptor (Rattus norvegicus, UniProt P33533). Kind of series: Displacement of [3H]DSLET from rat brain delta opioid receptor. For orientation: In a radioligand displacement assay an active substance lowers the binding of a labelled ligand.
Delta-type opioid receptor (Rattus norvegicus, UniProt P33533), sequence (P33533 whole entry): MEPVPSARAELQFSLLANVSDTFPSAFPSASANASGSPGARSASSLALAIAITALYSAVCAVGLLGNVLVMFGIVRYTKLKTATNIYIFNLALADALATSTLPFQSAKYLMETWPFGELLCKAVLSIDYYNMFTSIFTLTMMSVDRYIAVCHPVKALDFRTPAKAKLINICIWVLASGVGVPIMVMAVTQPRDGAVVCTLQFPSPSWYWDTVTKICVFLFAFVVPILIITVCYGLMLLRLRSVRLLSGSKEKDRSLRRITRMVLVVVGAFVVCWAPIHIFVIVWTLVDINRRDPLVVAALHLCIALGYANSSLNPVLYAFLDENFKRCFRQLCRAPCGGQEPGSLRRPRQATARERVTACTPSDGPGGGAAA
Regarding `NC(=O)[C@@H]1CCCC[C@@H](NC(=O)[C@@H](N)Cc2ccc(O)cc2)C(=O)NCC(=O)N[C@@H](Cc2ccccc2)C(=O)N1`, the inhibitory constant (Ki) turned out to be 5.87 nM.

`NC(=O)[C@H]1CCCC[C@@H](NC(=O)[C@@H](N)Cc2ccc(O)cc2)C(=O)NCC(=O)N[C@@H](Cc2ccccc2)C(=O)N1` displayed a Ki of 3.34 nM.

`NC(=O)[C@@H]1C/C=C/C[C@@H](NC(=O)[C@@H](N)Cc2ccc(O)cc2)C(=O)NCC(=O)N[C@@H](Cc2ccccc2)C(=O)N1` registered a Ki of 1.25 nM.

For `NC(=O)[C@@H]1C/C=C\C[C@@H](NC(=O)[C@@H](N)Cc2ccc(O)cc2)C(=O)NCC(=O)N[C@@H](Cc2ccccc2)C(=O)N1`, the affinity, expressed as Ki, was 6.55 nM.

In turn, `NC(=O)[C@H]1C/C=C/C[C@@H](NC(=O)[C@@H](N)Cc2ccc(O)cc2)C(=O)NCC(=O)N[C@@H](Cc2ccccc2)C(=O)N1` registered an inhibition constant (Ki) of 1.92 nM.

Turning to `NC(=O)[C@H]1C/C=C\C[C@@H](NC(=O)[C@@H](N)Cc2ccc(O)cc2)C(=O)NCC(=O)N[C@@H](Cc2ccccc2)C(=O)N1`, the inhibitory constant (Ki) was 7.04 nM.

The target in a further series is Kappa-type opioid receptor (Cavia porcellus, UniProt P41144). The series can be described thus: Displacement of [3H]U-69593 from guinea pig brain kappa opioid receptor.
Kappa-type opioid receptor, sequence (P41144 whole entry): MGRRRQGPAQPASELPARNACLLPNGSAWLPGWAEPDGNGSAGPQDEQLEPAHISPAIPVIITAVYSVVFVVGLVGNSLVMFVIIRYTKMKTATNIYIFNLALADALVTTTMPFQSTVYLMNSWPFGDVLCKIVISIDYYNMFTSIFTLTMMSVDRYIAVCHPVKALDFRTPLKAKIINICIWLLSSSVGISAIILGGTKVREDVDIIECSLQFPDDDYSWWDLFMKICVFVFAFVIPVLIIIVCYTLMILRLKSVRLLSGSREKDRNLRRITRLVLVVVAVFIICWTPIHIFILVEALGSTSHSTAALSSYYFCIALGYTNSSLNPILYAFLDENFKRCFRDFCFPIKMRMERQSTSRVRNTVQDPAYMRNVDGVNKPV
Take `NC(=O)[C@@H]1CCCC[C@@H](NC(=O)[C@@H](N)Cc2ccc(O)cc2)C(=O)NCC(=O)N[C@@H](Cc2ccccc2)C(=O)N1`: the inhibitory constant (Ki) was 309 nM.

`NC(=O)[C@@H]1CSSC[C@@H](NC(=O)[C@@H](N)Cc2ccc(O)cc2)C(=O)NCC(=O)N[C@@H](Cc2ccccc2)C(=O)N1` came in with a Ki of 40.1 nM.

`NC(=O)[C@H]1CCCC[C@@H](NC(=O)[C@@H](N)Cc2ccc(O)cc2)C(=O)NCC(=O)N[C@@H](Cc2ccccc2)C(=O)N1` gave a Ki of 71.5 nM.

In the case of `NC(=O)[C@@H]1C/C=C/C[C@@H](NC(=O)[C@@H](N)Cc2ccc(O)cc2)C(=O)NCC(=O)N[C@@H](Cc2ccccc2)C(=O)N1`, the Ki was 57.6 nM.

`NC(=O)[C@@H]1C/C=C\C[C@@H](NC(=O)[C@@H](N)Cc2ccc(O)cc2)C(=O)NCC(=O)N[C@@H](Cc2ccccc2)C(=O)N1` registered a Ki of 200 nM.

On to `NC(=O)[C@H]1C/C=C/C[C@@H](NC(=O)[C@@H](N)Cc2ccc(O)cc2)C(=O)NCC(=O)N[C@@H](Cc2ccccc2)C(=O)N1`, for which the affinity, expressed as Ki, was 30.4 nM.

On to `NC(=O)[C@H]1C/C=C\C[C@@H](NC(=O)[C@@H](N)Cc2ccc(O)cc2)C(=O)NCC(=O)N[C@@H](Cc2ccccc2)C(=O)N1`, for which the inhibition constant Ki is 498 nM.

A further series has as its target Mu-type opioid receptor (Cavia porcellus, UniProt P97266). The series can be described thus: Agonist activity at mu opioid receptor in guinea pig ileum. The class given is functional, tissue-based.
As a reminder, the IC50 is the midpoint of a concentration-inhibition curve. High values mean a need for much substance, low ones inhibition by little substance. As to `NC(=O)[C@@H]1CCCC[C@@H](NC(=O)[C@@H](N)Cc2ccc(O)cc2)C(=O)NCC(=O)N[C@@H](Cc2ccccc2)C(=O)N1`, the IC50 is 1.02 nM.

With `NC(=O)[C@H]1CCCC[C@@H](NC(=O)[C@@H](N)Cc2ccc(O)cc2)C(=O)NCC(=O)N[C@@H](Cc2ccccc2)C(=O)N1`, the half-inhibitory concentration (IC50) stood at 11.2 nM.

`NC(=O)[C@@H]1C/C=C/C[C@@H](NC(=O)[C@@H](N)Cc2ccc(O)cc2)C(=O)NCC(=O)N[C@@H](Cc2ccccc2)C(=O)N1` showed a 50% inhibitory concentration (IC50) of 0.898 nM.

With `NC(=O)[C@@H]1C/C=C\C[C@@H](NC(=O)[C@@H](N)Cc2ccc(O)cc2)C(=O)NCC(=O)N[C@@H](Cc2ccccc2)C(=O)N1`, the half-maximal inhibitory concentration (IC50) was 1.81 nM.

In turn, `NC(=O)[C@H]1C/C=C/C[C@@H](NC(=O)[C@@H](N)Cc2ccc(O)cc2)C(=O)NCC(=O)N[C@@H](Cc2ccccc2)C(=O)N1` gave a 50% inhibitory concentration (IC50) of 5.63 nM.

In turn, `NC(=O)[C@H]1C/C=C\C[C@@H](NC(=O)[C@@H](N)Cc2ccc(O)cc2)C(=O)NCC(=O)N[C@@H](Cc2ccccc2)C(=O)N1` returned an IC50 of 11.9 nM.

A further series has as its target Delta-type opioid receptor (Mus musculus, UniProt P32300). The series can be described thus: Agonist activity at delta opioid receptor in mouse vas deferens. The class given is functional, tissue-based.
`NC(=O)[C@@H]1CCCC[C@@H](NC(=O)[C@@H](N)Cc2ccc(O)cc2)C(=O)NCC(=O)N[C@@H](Cc2ccccc2)C(=O)N1` registered an IC50 of 3.19 nM.

As for `NC(=O)[C@H]1CCCC[C@@H](NC(=O)[C@@H](N)Cc2ccc(O)cc2)C(=O)NCC(=O)N[C@@H](Cc2ccccc2)C(=O)N1`, the half-maximal inhibitory concentration (IC50) is 3.64 nM.

Compound `NC(=O)[C@@H]1C/C=C/C[C@@H](NC(=O)[C@@H](N)Cc2ccc(O)cc2)C(=O)NCC(=O)N[C@@H](Cc2ccccc2)C(=O)N1` gave an IC50 of 0.275 nM.

`NC(=O)[C@@H]1C/C=C\C[C@@H](NC(=O)[C@@H](N)Cc2ccc(O)cc2)C(=O)NCC(=O)N[C@@H](Cc2ccccc2)C(=O)N1`: the IC50 was determined as 0.496 nM.

Compound `NC(=O)[C@H]1C/C=C/C[C@@H](NC(=O)[C@@H](N)Cc2ccc(O)cc2)C(=O)NCC(=O)N[C@@H](Cc2ccccc2)C(=O)N1` displayed an IC50 of 4.38 nM.

Take `NC(=O)[C@H]1C/C=C\C[C@@H](NC(=O)[C@@H](N)Cc2ccc(O)cc2)C(=O)NCC(=O)N[C@@H](Cc2ccccc2)C(=O)N1`: the IC50 is 9.91 nM.

The subject of another series is Brain. The series can be described thus: Stability in rat brain membrane upto 24 hrs assessed as degradation by disulfide reductases. The class given is ADME, cell membranes.
Turning to `NC(=O)[C@@H]1CSSC[C@@H](NC(=O)[C@@H](N)Cc2ccc(O)cc2)C(=O)NCC(=O)N[C@@H](Cc2ccccc2)C(=O)N1`, the Stability entry is reported as “Stable”.

Another series relates to Brain. Kind of series: Stability in rat brain membrane after 40 mins assessed as degradation by disulfide reductases. The format is ADME, cell membranes.
With `NC(=O)[C@@H]1CCCC[C@@H](NC(=O)[C@@H](N)Cc2ccc(O)cc2)C(=O)NCC(=O)N[C@@H](Cc2ccccc2)C(=O)N1`, the Activity entry is on record as “Not Active”.

Take `NC(=O)[C@@H]1CSSC[C@@H](NC(=O)[C@@H](N)Cc2ccc(O)cc2)C(=O)NCC(=O)N[C@@H](Cc2ccccc2)C(=O)N1`: the Activity result is recorded as “Not Active”.

In the case of `NC(=O)[C@@H]1C/C=C/C[C@@H](NC(=O)[C@@H](N)Cc2ccc(O)cc2)C(=O)NCC(=O)N[C@@H](Cc2ccccc2)C(=O)N1`, the Activity result is on record as “Not Active”.

As for `NC(=O)[C@@H]1C/C=C\C[C@@H](NC(=O)[C@@H](N)Cc2ccc(O)cc2)C(=O)NCC(=O)N[C@@H](Cc2ccccc2)C(=O)N1`, the Activity result was “Not Active”.

Values taken from ChEMBL document CHEMBL1142949, “Dicarba analogues of the cyclic enkephalin peptides H-Tyr-c[D-Cys-Gly-Phe-D(or L)-Cys]NH(2) retain high opioid activity” (J Med Chem, 2007).
